Results from patent US20100099561A1, “HETEROBICYCLIC ALKYLTHIO-BRIDGED ISOXAZOLINES” (E.I. DU PONT DE NEMOURS AND COMPANY, priority 2008, published 2010).

Key:
Format in all cases: in vivo
[1] = test system: barnyardgrass (Echinochloa crus-galli); experiment: Test A preemergence, barnyardgrass; details: 0 to 100 scale (0 no effect, 100 complete control)
Text: (§1) Seeds of barnyardgrass (Echinochloa crus-galli), large crabgrass (Digitaria sanguinalis), giant foxtail (Setaria faberi), morningglory (Ipomoea spp.), pigweed (Amaranthus retroflexus), velvetleaf (Abutilon theophrasti), wheat (Triticum aestivum), and corn (Zea mays) were planted into a blend of loam soil and sand and treated preemergence with a directed soil spray using test chemicals formulated in a non-phytotoxic solvent mixture which included a surfactant. At the same time these species were also treated with postemergence applications of test compounds formulated in the same manner. Plants ranged in height from two to ten cm and were in the one- to two-leaf stage for the postemergence treatment. Treated plants and untreated controls were maintained in a greenhouse for approximately ten days, after which time all treated plants were compared to untreated controls and visually evaluated for injury. Plant response ratings, summarized in Table A, are based on a 0 to 100 scale where 0 is no effect and 100 is complete control. A dash (-) response means no test result.

[2] = test system: large crabgrass (Digitaria sanguinalis); experiment: Test A preemergence, large crabgrass; details: 0 to 100 scale (0 no effect, 100 complete control)
Text: as §1

[3] = test system: giant foxtail (Setaria faberi); experiment: Test A preemergence, giant foxtail; details: 0 to 100 scale (0 no effect, 100 complete control)
Text: as §1

[4] = test system: morningglory (Ipomoea spp.); experiment: Test A preemergence, morningglory; details: 0 to 100 scale (0 no effect, 100 complete control)
Text: as §1

[5] = test system: pigweed (Amaranthus retroflexus); experiment: Test A preemergence, pigweed; details: 0 to 100 scale (0 no effect, 100 complete control)
Text: as §1

[6] = test system: velvetleaf (Abutilon theophrasti); experiment: Test A preemergence, velvetleaf; details: 0 to 100 scale (0 no effect, 100 complete control)
Text: as §1

[7] = test system: wheat (Triticum aestivum); experiment: Test A preemergence, wheat; details: 0 to 100 scale (0 no effect, 100 complete control)
Text: as §1

corn (Zea mays) [8] = experiment: Test A preemergence, corn; details: 0 to 100 scale (0 no effect, 100 complete control)
Text: as §1

[9] = test system: barnyardgrass (Echinochloa crus-galli); experiment: Test A postemergence, barnyardgrass; details: 0 to 100 scale (0 no effect, 100 complete control)
Text: as §1

[10] = test system: large crabgrass (Digitaria sanguinalis); experiment: Test A postemergence, large crabgrass; details: 0 to 100 scale (0 no effect, 100 complete control)
Text: as §1

[11] = test system: giant foxtail (Setaria faberi); experiment: Test A postemergence, giant foxtail; details: 0 to 100 scale (0 no effect, 100 complete control)
Text: as §1

[12] = test system: morningglory (Ipomoea spp.); experiment: Test A postemergence, morningglory; details: 0 to 100 scale (0 no effect, 100 complete control)
Text: as §1

[13] = test system: pigweed (Amaranthus retroflexus); experiment: Test A postemergence, pigweed; details: 0 to 100 scale (0 no effect, 100 complete control)
Text: as §1

[14] = test system: velvetleaf (Abutilon theophrasti); experiment: Test A postemergence, velvetleaf; details: 0 to 100 scale (0 no effect, 100 complete control)
Text: as §1

[15] = test system: wheat (Triticum aestivum); experiment: Test A postemergence, wheat; details: 0 to 100 scale (0 no effect, 100 complete control)
Text: as §1

corn (Zea mays) [16] = experiment: Test A postemergence, corn; details: 0 to 100 scale (0 no effect, 100 complete control)
Text: as §1

rice (Oryza sativa) = experiment: Test B flooded paddy test, rice; details: Flood, scale 0 to 100
Text: (§2) Plant species in the flooded paddy test consisted of rice (Oryza sativa), umbrella sedge (Cyperus difformis), ducksalad (Heteranthera limosa) and barnyardgrass (Echinochloa crus-galli) grown to the 2-leaf stage for testing. At time of treatment, test pots were flooded to 3 cm above the soil surface, treated by application of test compounds directly to the paddy water, and then maintained at that water depth for the duration of the test. Treated plants and controls were maintained in a greenhouse for 13 to 15 days, after which time all species were compared to controls and visually evaluated. Plant response ratings, summarized in Table B, are based on a scale of 0 to 100 where 0 is no effect and 100 is complete control. A dash (-) response means no test result.

[17] = test system: umbrella sedge (Cyperus difformis); experiment: Test B flooded paddy test, umbrella sedge; details: Flood, scale 0 to 100
Text: as §2

[18] = test system: ducksalad (Heteranthera limosa); experiment: Test B flooded paddy test, ducksalad; details: Flood, scale 0 to 100
Text: as §2

[19] = test system: barnyardgrass (Echinochloa crus-galli); experiment: Test B flooded paddy test, barnyardgrass; details: Flood
Text: as §2

Row | SMILES | Plant response rating, Barnyardgrass ([1]; 125 g ai/ha) | Plant response rating, Barnyardgrass ([1]; 500 g ai/ha) | Plant response rating, Crabgrass, Large ([2]; 125 g ai/ha) | Plant response rating, Crabgrass, Large ([2]; 500 g ai/ha) | Plant response rating, Foxtail, Giant ([3]; 125 g ai/ha) | Plant response rating, Foxtail, Giant ([3]; 500 g ai/ha) | Plant response rating, Morningglory ([4]; 125 g ai/ha) | Plant response rating, Morningglory ([4]; 500 g ai/ha) | Plant response rating, Pigweed ([5]; 125 g ai/ha) | Plant response rating, Pigweed ([5]; 500 g ai/ha) | Plant response rating, Velvetleaf ([6]; 125 g ai/ha) | Plant response rating, Velvetleaf ([6]; 500 g ai/ha) | Plant response rating, Wheat ([7]; 125 g ai/ha) | Plant response rating, Wheat ([7]; 500 g ai/ha) | Plant response rating, Corn (corn (Zea mays) [8]; 125 g ai/ha) | Plant response rating, Corn (corn (Zea mays) [8]; 500 g ai/ha) | Plant response rating, Barnyardgrass ([9]; 125 g ai/ha) | Plant response rating, Barnyardgrass ([9]; 500 g ai/ha) | Plant response rating, Crabgrass, Large ([10]; 125 g ai/ha) | Plant response rating, Crabgrass, Large ([10]; 500 g ai/ha) | other results
1 | CC1(C)CC([S+]([O-])Cc2c(C(F)(F)Cl)nc3n(c2=O)CCCC3)=NO1 (centres unmarked) [Compound 32] | 20 | 70 | 50 | 80 | 30 | 80 | 0 | 0 | 0 | 0 | 0 | 0 | 0 | 0 | 0 | 0 | 10 | 40 | 10 | 40 | Plant response rating, Foxtail, Giant ([11]; 125 g ai/ha): 0; Plant response rating, Foxtail, Giant ([11]; 500 g ai/ha): 50; Plant response rating, Morningglory ([12]; 125 g ai/ha): 40; Plant response rating, Morningglory ([12]; 500 g ai/ha): 50; Plant response rating, Pigweed ([13]; 125 g ai/ha): 0; Plant response rating, Pigweed ([13]; 500 g ai/ha): 30; Plant response rating, Velvetleaf ([14]; 125 g ai/ha): 0; Plant response rating, Velvetleaf ([14]; 500 g ai/ha): 10; Plant response rating, Wheat ([15]; 125 g ai/ha): 0; Plant response rating, Wheat ([15]; 500 g ai/ha): 0; Plant response rating, Corn (corn (Zea mays) [16]; 125 g ai/ha): 0; Plant response rating, Corn (corn (Zea mays) [16]; 500 g ai/ha): 0; Plant response rating, Rice (rice (Oryza sativa); 31 g ai/ha): 0; Plant response rating, Rice (rice (Oryza sativa); 125 g ai/ha): 0; Plant response rating, Sedge, Umbrella ([17]; 31 g ai/ha): 0; Plant response rating, Sedge, Umbrella ([17]; 125 g ai/ha): 0; Plant response rating, Ducksalad ([18]; 31 g ai/ha): 0; Plant response rating, Ducksalad ([18]; 125 g ai/ha): 0; Plant response rating, Barnyardgrass ([19]; 31 g ai/ha, scale 0 to 100): 0; Plant response rating, Barnyardgrass ([19]; 125 g ai/ha, scale 0 to 100): 0
2 | Cc1con2c(=O)c(C[S+]([O-])C3=NOC(C)(C)C3)c(C(F)(F)F)nc12 (centres unmarked) [Compound 47] | 0 | 70 | 0 | 20 | 0 | 30 | 0 | 0 | 0 | 0 | 0 | 0 | 0 | 0 | 0 | 0 | 0 | 50 | 0 | 60 | Plant response rating, Foxtail, Giant ([11]; 125 g ai/ha): 0; Plant response rating, Foxtail, Giant ([11]; 500 g ai/ha): 60; Plant response rating, Morningglory ([12]; 125 g ai/ha): 0; Plant response rating, Morningglory ([12]; 500 g ai/ha): 20; Plant response rating, Pigweed ([13]; 125 g ai/ha): 0; Plant response rating, Pigweed ([13]; 500 g ai/ha): 0; Plant response rating, Velvetleaf ([14]; 125 g ai/ha): 0; Plant response rating, Velvetleaf ([14]; 500 g ai/ha): 0; Plant response rating, Wheat ([15]; 125 g ai/ha): 0; Plant response rating, Wheat ([15]; 500 g ai/ha): 0; Plant response rating, Corn (corn (Zea mays) [16]; 125 g ai/ha): 0; Plant response rating, Corn (corn (Zea mays) [16]; 500 g ai/ha): 20; Plant response rating, Rice (rice (Oryza sativa); 62 g ai/ha): 0; Plant response rating, Rice (rice (Oryza sativa); 250 g ai/ha): 0; Plant response rating, Sedge, Umbrella ([17]; 62 g ai/ha): 0; Plant response rating, Sedge, Umbrella ([17]; 250 g ai/ha): 0; Plant response rating, Ducksalad ([18]; 62 g ai/ha): 0; Plant response rating, Ducksalad ([18]; 250 g ai/ha): 0; Plant response rating, Barnyardgrass ([19]; 62 g ai/ha, scale 0 to 100): 0; Plant response rating, Barnyardgrass ([19]; 250 g ai/ha, scale 0 to 100 (0 no effect, 100 complete control)): 0
